# Assays:
# [1] = tested on: HSV-1R; experiment: Action on the viral adsorption (treatments A, B, C); format: cell-based, herpes simplex virus 1; conditions: treatment C (present during and after infection), 72 hours
# Procedure: (§1) To determine whether PS3 has an effect on the viral adsorption, the procedure was as follows.
# (§2) Vero cells were seeded at a cell density of 3.5·10^4 cells/well of a 96-well microtitre plate in 100 μl of MEM medium containing 8% FCS 24 hours before the test. The viral suspensions of HSV-1, HSV-1R, HSV-2 and HSV-2R, defined by an MOI of 0.01 ID50/cell for a cell concentration of 350,000 cells/ml, were tested.
# (§3) On the day of the test, the cells were subjected to three different treatments designated A, B and C.
# (§4) According to treatment A, cells treated with 50 μl of PS3 or comparison product (acyclovir) of a given concentration were infected with 50 μl of one of the viral suspensions identified above for one hour at 4° C.
# (§5) The infected cells were then washed with 100 μl of saline buffer in order to remove the PS3 or the reference product as well as the viral particles which had not been adsorbed by the cells.
# (§6) After having filled each well with sufficient MEM medium containing 8% FCS to arrive at a volume of 200 μl, the cells were then placed in an oven at 37° C. for 72 hours. […]
# (§7) For these 3 treatments, the inhibitory effect of PS3 and of the reference product (expressed in EC50) on the adsorption of the four abovementioned viral strains after 72 hours was evaluated by measurement of the EC50 values in accordance with the method described in Example 3.
# [2] = tested on: HSV-1; experiment: as above; format: cell-based, herpes simplex virus 1; conditions: treatment C (present during and after infection), 72 hours
# Procedure: as §1, §2, §3, §4, §5, §6, §7
# [3] = tested on: white rabbits of the New Zealand breed; experiment: Ocular irritation test; format: in vivo
# Procedure: (§8) This study was carried out on white rabbits of the New Zealand breed and on rats of the Sprague Dawley breed.
# (§9) The white rabbits were subjected on the one hand to the ocular irritation test and on the other hand to the primary skin irritation test.
# (§10) observing the OECD Guidelines no. 404 and 405 of 24 Feb. 1987 to the extent that they are studies carried out on white rabbits, and OECD Guidelines no. 401 and 402 (1987) as well as EEC Directive B-I 92/69 (1992) to the extent that they are studies carried out on Sprague Dawley rats.
# [4] = tested on: white rabbits of the New Zealand breed; experiment: Primary skin irritation test; format: in vivo
# Procedure: as §8, §9, §10
# [5] = tested on: rats of the Sprague Dawley breed; experiment: Acute dermal toxicity; format: in vivo
# Procedure: as §8
# (§11) The rats were subjected on the one hand to a study for determination of the acute dermal toxicity and on the other hand to a study for determination of the acute oral toxicity.
# as §10
# [6] = tested on: rats of the Sprague Dawley breed; experiment: Acute oral toxicity; format: in vivo
# Procedure: as §8, §11, §10
# [7] = tested on: factor Xa; experiment: HEPTEST coagulation test; format: biochemical; conditions: in contrast to heparin
# Procedure: For this, the anticoagulant activity of the laminarin sulphate PS3 obtained in Example 1 was determined as a function of its concentration in comparison with that of heparin in the conventional coagulation, APTT or “activated partial thromboplastin time” tests, the prothombin time test, the so-called “HEPTEST” test and the thrombin time test. The APTT reflects an interaction with the intrinsic coagulation system, while the prothrombin time reflects an interaction with the extrinsic coagulation; the so-called “HEPTEST” test is the conventional test for measurement of the inhibitory activity of heparin with respect to factor Xa, and the thrombin time corresponds to the last stage of coagulation, that is to say the formation of fibrins induced by thrombin. […] The specific activity (IU/mg) in the APTT represents 30% of the heparin activity, and in the case of the thrombin time 60%. To prevent coagulation totally, it was necessary to apply a concentration 4 times higher in the case of the APTT and a concentration 20 times higher in the case of the thrombin time.
# [8] = tested on: extrinsic coagulation; experiment: Prothrombin time test; format: biochemical
# Procedure: (§12) For this, the anticoagulant activity of the laminarin sulphate PS3 obtained in Example 1 was determined as a function of its concentration in comparison with that of heparin in the conventional coagulation, APTT or “activated partial thromboplastin time” tests, the prothombin time test, the so-called “HEPTEST” test and the thrombin time test. The APTT reflects an interaction with the intrinsic coagulation system, while the prothrombin time reflects an interaction with the extrinsic coagulation; the so-called “HEPTEST” test is the conventional test for measurement of the inhibitory activity of heparin with respect to factor Xa, and the thrombin time corresponds to the last stage of coagulation, that is to say the formation of fibrins induced by thrombin.
# [9] = tested on: intrinsic coagulation system; experiment: APTT (activated partial thromboplastin time) test; format: biochemical; conditions: relative to heparin
# Procedure: as §12
# [10] = tested on: formation of fibrins induced by thrombin; experiment: Thrombin time test; format: biochemical; conditions: relative to heparin
# Procedure: as §12
# [11] = tested on: factor Xa; experiment: Specific anti-factor Xa test using chromogenic substrates; format: biochemical
# Description: (§13) The effect in the case of the thrombin time can be considered as being due to an inhibition of thrombin dependent on heparin cofactor II. On the basis of on the one hand the lower specific activity and on the other hand the profile dependent on the concentration and also on the other hand other investigations relating to the action mechanism, it is possible to consider that in the case of the laminarin sulphate PS3, the risk of bleeding is considerably lower than in the case of heparin.
# [12] = tested on: thrombin; experiment: Specific antithrombin test using chromogenic substrates; format: biochemical
# Description: as §13
substance,measurement,setting,value
sulphated laminarin [PS3],EC50,[1],5.54 µg/mL
same,EC50,[2],3.84 µg/mL
same,Ocular irritation,[3],slightly irritating action
same,Primary skin irritation,[4],non-irritating action
same,dermal 50% lethal dose,[5],greater than 2 g/kg of body weight
same,acute toxicity by the oral route,[6],greater than 2 g/kg of body weight
same,Activity in the HEPTEST test compared with heparin,[7],more than 20 times weaker
same,Anticoagulant effect on the prothrombin time,[8],no pronounced anticoagulant effect
same,"Concentration needed to prevent coagulation totally, APTT",[9],4 times higher
same,Specific activity (IU/mg) in the APTT as share of the heparin activity,[9],30%
same,"Concentration needed to prevent coagulation totally, thrombin time",[10],20 times higher
same,Specific activity (IU/mg) in the thrombin time as share of the heparin activity,[10],60%
same,anti-factor Xa activity dependent on the antithrombin,[11],neither a significant anti-factor Xa activity dependent on the antithrombin
same,antithrombin activity,[12],nor an antithrombin activity

# — patent publication US8288363B2, “Medicaments for anti-herpes virus treatments” (ASE & BIO, priority 2006, dated 2012)
